Positions of bridges follow the written chain, without caps; N, C: chain ends. Non-standard residues stand in square brackets, D forms with d. Residues, ends and D or L forms follow the SMILES beside them. Hyp = O=C(O)[C@@H]1C[C@@H](O)CN1; Aib = CC(C)(N)C(=O)O
Key:
[1] = Plasma stability of AJ003-40 and AJ003-24 (HPLC, Example 4); type: in vitro ADME; details: human plasma; for main peak area: 2 mg/mL
Procedure: Peptides AJ003-40 and AJ003-24 were separately weighed and mixed with human plasma to prepare solutions at 2 mg/mL. 300 µL of peptide-containing plasma was mixed with 300 µL acetonitrile, centrifuged at 4°C and 12,000 rpm for 5 minutes, and the supernatant was filtered through an organic membrane. 200 µL of the filtrate was transferred to an LC vial as the 0 h sample. Peptide-containing plasma was incubated in a 37°C water bath. For AJ003-40, 300 µL of plasma was sampled at 24 h, mixed with 300 µL acetonitrile, centrifuged, filtered, and 200 µL of the filtrate was transferred to an LC vial as the 24 h sample. For AJ003-24, 300 µL of plasma was sampled at 22 h, processed similarly, and 200 µL of the filtrate was transferred to an LC vial as the 22 h sample.

[2] = system: mouse oxaliplatin acute chemotherapy pain model; assay: Mouse oxaliplatin chemotherapy pain model, multiple peptides (Example 8); type: in vivo; details: single dose 3 mg/kg s.c., 0.5-8 h post-dose, n=3
Procedure: Oxaliplatin was dissolved in 5% glucose solution to a concentration of 1 mg/mL. For model induction, each male C57 mouse (Shanghai Bikai Keyi Biotechnology Co., Ltd.) received a single intraperitoneal injection of oxaliplatin at 10 mg/kg. Mice in the negative control or blank control group received 5% glucose solution. Approximately one week after model induction, mechanical pain thresholds of the mice were measured three times per mouse, and the average value was calculated. Mice were then randomly assigned to groups based on their pain thresholds. Drug administration was carried out according to the dosing schedule shown in Table 7, with a single dose per mouse. Mechanical pain thresholds were measured at 0.5, 1, 2, 4, 6, and 8 h post-dose. […] Table 7 Dosing Scheme for Oxaliplatin Chemotherapy Pain Model in Mice

Cav2.2 channel = Cav2.2 channel (Homo sapiens, UniProt Q00975); details: cited from earlier work
Sequence of Cav2.2 channel (Q00975 whole entry, looked up): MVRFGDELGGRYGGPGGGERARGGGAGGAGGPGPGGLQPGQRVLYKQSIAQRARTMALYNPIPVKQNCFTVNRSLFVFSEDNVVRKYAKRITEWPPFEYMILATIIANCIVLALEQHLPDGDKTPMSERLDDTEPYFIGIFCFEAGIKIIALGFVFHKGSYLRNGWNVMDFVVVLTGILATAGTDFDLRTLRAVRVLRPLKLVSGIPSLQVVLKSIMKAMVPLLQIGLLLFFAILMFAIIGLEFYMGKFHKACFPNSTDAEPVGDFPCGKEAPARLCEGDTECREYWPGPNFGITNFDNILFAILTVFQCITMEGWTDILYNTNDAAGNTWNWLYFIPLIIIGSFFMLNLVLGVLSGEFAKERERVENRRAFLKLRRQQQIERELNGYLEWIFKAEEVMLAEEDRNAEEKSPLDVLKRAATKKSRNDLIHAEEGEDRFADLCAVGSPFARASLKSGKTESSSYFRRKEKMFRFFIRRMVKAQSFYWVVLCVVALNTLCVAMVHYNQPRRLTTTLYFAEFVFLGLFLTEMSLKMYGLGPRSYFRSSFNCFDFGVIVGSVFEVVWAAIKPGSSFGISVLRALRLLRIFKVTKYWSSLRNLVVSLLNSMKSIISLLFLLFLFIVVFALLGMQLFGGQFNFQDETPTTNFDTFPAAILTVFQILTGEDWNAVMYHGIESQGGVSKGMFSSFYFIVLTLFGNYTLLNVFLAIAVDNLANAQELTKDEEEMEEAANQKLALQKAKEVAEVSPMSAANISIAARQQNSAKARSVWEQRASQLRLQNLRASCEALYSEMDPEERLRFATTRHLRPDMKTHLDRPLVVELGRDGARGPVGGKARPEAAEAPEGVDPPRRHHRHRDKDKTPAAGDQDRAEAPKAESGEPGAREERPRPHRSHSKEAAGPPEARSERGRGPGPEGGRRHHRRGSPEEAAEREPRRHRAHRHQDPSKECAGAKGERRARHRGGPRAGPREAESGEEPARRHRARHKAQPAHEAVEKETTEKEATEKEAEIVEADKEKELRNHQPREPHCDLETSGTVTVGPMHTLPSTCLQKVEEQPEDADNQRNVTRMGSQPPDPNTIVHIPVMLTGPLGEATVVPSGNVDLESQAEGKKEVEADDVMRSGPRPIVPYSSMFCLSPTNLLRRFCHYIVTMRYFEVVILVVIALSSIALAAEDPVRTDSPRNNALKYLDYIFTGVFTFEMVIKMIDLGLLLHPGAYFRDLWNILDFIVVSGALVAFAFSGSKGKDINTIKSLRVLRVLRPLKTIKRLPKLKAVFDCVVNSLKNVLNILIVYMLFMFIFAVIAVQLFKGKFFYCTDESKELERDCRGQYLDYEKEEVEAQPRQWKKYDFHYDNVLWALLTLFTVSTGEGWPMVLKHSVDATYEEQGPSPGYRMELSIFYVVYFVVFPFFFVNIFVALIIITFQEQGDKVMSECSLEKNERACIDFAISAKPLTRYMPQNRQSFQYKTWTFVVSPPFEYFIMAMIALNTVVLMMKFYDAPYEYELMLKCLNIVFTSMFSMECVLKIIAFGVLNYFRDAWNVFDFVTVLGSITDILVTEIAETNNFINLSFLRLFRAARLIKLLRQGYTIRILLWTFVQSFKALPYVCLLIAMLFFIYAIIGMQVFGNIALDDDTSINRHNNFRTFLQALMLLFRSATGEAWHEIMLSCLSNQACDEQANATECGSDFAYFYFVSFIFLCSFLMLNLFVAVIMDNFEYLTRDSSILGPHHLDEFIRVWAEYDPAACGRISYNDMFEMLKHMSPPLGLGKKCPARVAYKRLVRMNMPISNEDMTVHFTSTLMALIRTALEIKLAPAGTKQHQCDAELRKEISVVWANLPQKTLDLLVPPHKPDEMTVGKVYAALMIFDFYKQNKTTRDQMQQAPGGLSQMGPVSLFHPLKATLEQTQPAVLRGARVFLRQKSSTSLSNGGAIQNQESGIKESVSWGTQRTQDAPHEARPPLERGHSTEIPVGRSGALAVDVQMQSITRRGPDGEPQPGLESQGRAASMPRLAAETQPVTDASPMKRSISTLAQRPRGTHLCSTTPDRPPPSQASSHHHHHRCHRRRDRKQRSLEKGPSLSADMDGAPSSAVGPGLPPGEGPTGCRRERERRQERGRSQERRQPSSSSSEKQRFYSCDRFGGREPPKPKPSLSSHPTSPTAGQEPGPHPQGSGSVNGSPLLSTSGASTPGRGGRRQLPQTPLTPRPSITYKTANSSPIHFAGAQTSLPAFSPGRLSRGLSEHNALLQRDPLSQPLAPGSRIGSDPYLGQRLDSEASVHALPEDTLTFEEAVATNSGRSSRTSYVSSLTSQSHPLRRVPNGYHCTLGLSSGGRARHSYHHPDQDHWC

α9 nAChR = target: T1, α9 nAChR (Homo sapiens, UniProt Q9UGM1); assay: BLI (biolayer interferometry) affinity of peptides to α9 nAChR; type: binding; details: NTA sensor, α9 nAChR 5 µg/mL, peptide 1.372-1000 nM in PBS
T1 construct: inferred from capture on NTA sensor
T1 sequence (Q9UGM1 23-479): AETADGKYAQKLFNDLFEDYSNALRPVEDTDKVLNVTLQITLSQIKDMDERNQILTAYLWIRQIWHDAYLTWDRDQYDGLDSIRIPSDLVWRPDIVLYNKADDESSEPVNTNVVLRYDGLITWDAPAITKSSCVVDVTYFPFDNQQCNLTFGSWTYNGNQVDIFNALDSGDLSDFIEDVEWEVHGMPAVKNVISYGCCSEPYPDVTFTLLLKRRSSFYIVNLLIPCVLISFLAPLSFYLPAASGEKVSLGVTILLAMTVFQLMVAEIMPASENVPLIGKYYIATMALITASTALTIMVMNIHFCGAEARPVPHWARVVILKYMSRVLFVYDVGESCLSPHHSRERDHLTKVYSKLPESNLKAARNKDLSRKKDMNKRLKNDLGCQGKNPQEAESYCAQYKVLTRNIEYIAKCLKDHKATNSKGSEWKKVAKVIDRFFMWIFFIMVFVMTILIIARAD
From the text: (§1) BLI is a label-free technology that converts optical interference signals occurring on the surface of BLI biosensors into real-time response signals. By monitoring the molecular binding process in real time, the system determines association rate constants (ka or kon), dissociation rate constants (kd or koff), and initial binding rates, and calculates affinity (KD) by fitting analysis. Here are the specific procedures: NTA sensors (Sartorius) were placed in a pre-wetting tray, which was then positioned in a black 96-well plate with 200 µL PBS per well. The NTA sensors were pre-wetted for at least 15 minutes. The target protein α9 nAChR was diluted in PBS to 5 µg/mL, with 200 µL added per well. Test peptides were dissolved in PBS and serially diluted threefold, with concentrations from high to low as 1000 nM, 333.3 nM, 111.1 nM, 37.04 nM, 12.35 nM, 4.115 nM, and 1.372 nM, with an additional well with PBS only as a zeroconcentration control. After equilibrating the instrument baseline, the NTA sensor was used to immobilize the target protein α9 nAChR. Once immobilization was complete, the baseline was re-equilibrated, followed by a 5-minute association and a 5-minute dissociation phase. Affinity measurements of the test peptides were conducted sequentially using the above procedure. The procedure for measuring peptide affinity to α7 nAChR was similar, except that the α7 nAChR concentration was 20 µg/mL. Tables 2 and 3 show the BLI-determined affinities of alanine-scan peptide analogs with target proteins, which identified sites on the parent peptide suitable for modification. Subsequently, single-site non-natural amino acid substituted peptides were evaluated by BLI for target protein affinity. Finally, multi-site combinatorial modified peptides were measured for affinity by BLI, leading to the selection of high-affinity peptides for further screen and drug development potential. Table 2 Test Results for Affinity of Modified Peptides to α9 nAChR

α9α10 nAChRs = α9α10 nAChRs (Homo sapiens, UniProt Q9GZZ6+Q9UGM1); details: cited from earlier work
Sequence of α9α10 nAChRs (Q9UGM1 26-479 limits assumed): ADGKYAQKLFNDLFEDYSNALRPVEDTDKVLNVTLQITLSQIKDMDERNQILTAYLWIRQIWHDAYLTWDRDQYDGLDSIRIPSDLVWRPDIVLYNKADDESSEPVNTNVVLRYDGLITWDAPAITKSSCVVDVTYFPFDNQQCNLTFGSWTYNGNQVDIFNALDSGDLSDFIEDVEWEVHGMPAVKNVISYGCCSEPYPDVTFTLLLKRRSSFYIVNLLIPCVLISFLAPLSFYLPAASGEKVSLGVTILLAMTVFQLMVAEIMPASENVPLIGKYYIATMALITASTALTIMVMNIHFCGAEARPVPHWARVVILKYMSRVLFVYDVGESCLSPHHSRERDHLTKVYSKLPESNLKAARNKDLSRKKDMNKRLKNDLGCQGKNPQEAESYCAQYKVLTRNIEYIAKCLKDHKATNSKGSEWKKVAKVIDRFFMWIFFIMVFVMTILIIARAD
Sequence of α9α10 nAChRs (Q9GZZ6 25-450): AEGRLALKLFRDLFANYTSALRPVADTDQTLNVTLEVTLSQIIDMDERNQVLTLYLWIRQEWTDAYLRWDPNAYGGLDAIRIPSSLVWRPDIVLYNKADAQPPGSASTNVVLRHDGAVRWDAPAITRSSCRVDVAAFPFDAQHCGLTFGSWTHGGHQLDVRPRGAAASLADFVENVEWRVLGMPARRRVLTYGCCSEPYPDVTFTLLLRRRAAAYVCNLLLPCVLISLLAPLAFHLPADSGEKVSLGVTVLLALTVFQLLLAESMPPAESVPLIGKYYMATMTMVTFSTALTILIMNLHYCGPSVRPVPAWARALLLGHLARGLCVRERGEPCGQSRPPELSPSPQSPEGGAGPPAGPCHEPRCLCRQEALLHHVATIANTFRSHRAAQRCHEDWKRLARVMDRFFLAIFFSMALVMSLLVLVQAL

α7 nAChR = α7 nAChR (Homo sapiens, UniProt P36544); assay: BLI (biolayer interferometry) affinity of peptides to α7 nAChR; type: binding; set-up: inferred from the 'similar' procedure on NTA sensors; details: NTA sensor, α7 nAChR 20 µg/mL, peptide 1.372-1000 nM in PBS
Sequence of α7 nAChR (P36544 23-502): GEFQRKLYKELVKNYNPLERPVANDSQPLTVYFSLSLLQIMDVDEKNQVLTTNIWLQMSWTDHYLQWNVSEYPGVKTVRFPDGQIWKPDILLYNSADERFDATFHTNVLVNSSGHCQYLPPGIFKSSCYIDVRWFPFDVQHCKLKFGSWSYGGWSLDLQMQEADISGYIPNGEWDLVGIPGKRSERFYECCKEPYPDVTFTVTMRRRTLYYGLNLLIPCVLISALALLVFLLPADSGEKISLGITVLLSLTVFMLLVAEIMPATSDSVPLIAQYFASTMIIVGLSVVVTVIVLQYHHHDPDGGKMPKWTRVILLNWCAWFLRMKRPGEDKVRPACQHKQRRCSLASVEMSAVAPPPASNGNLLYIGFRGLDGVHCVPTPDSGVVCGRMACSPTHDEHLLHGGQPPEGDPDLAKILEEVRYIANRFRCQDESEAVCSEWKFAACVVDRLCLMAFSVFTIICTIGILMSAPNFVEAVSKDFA
From the text: as §1

CC(C)C[C@H](NC(=O)[C@@H](NC(=O)[C@H]1CSSC[C@H](NC(=O)[C@H](CO)NC(=O)CN)C(=O)N[C@@H](CO)C(=O)N[C@H]([C@H](C)O)C(=O)N2CCC[C@H]2C(=O)N2CCC[C@H]2C(=O)NCC(=O)N1)C(C)C)C(=O)N[C@@H](Cc1ccc(O)cc1)C(=O)N[C@@H](CO)C(=O)O [AJ003-24, GSCS-(D-Thr)-PPG-(D-Cys)-VLYS (3,9 disulfide bond)] (H-GSCS[dT]PPG[dC]VLYS-OH; disulfide 3-9)
main peak area ([1]; 0 h): 746.80 | main peak area ([1]; 37°C, 22 h): 267.45 | metabolised at 22 h, 2 mg/mL ([1]; 37°C, 22 h, read-out: degradation): 64.2% | analgesic activity against oxaliplatin-induced chemotherapy pain (mechanical pain threshold compared with the model group) [2]: ineffective

ziconotide
analgesic potency relative to opioids (Cav2.2 channel): approximately 1000 times

CC(C)C[C@H](NC(=O)[C@@H](NC(=O)[C@H]1CSSC[C@H](NC(=O)[C@H](CO)NC(=O)CN)C(=O)N[C@@H](CO)C(=O)N[C@H]([C@H](C)O)C(=O)N2CCC[C@H]2C(=O)N2C[C@H](O)C[C@H]2C(=O)N[C@@H](CO)C(=O)N1)C(C)C)C(=O)N[C@@H](Cc1ccc(O)cc1)C(=O)N[C@@H](CO)C(=O)O [AJ003-17, GSCS-(D-Thr)-P-Hyp-S-(D-Cys)-VLYS (3,9 disulfide bond)] (H-GSCS[dT]P[Hyp]S[dC]VLYS-OH; disulfide 3-9)
Kd (α9 nAChR): 110 nM

CC(C)C[C@H](NC(=O)[C@@H](NC(=O)[C@H]1CSSC[C@H](NC(=O)[C@H](CO)NC(=O)CN)C(=O)N[C@@H](CO)C(=O)N[C@H]([C@H](C)O)C(=O)N2C[C@H](O)C[C@H]2C(=O)N2CCC[C@H]2C(=O)N[C@@H](CO)C(=O)N1)C(C)C)C(=O)N[C@@H](Cc1ccc(O)cc1)C(=O)N[C@@H](CO)C(=O)O [AJ003-16, GSCS-(D-Thr)-Hyp-PS-(D-Cys)-VLYS (3,9 disulfide bond)] (H-GSCS[dT][Hyp]PS[dC]VLYS-OH; disulfide 3-9)
Kd (α9 nAChR): 35.3 nM

Vc1.1
reduction of activity on human receptors compared to rat receptors (α9α10 nAChRs): approximately 100 fold

CC(C)C[C@H](NC(=O)C(C)(C)NC(=O)[C@H]1CSSC[C@H](NC(=O)[C@H](CO)NC(=O)CN)C(=O)N[C@@H](CO)C(=O)N[C@H]([C@H](C)O)C(=O)N2CCC[C@H]2C(=O)N2CCC[C@H]2C(=O)N[C@@H](CO)C(=O)N1)C(=O)N[C@@H](Cc1ccc(O)cc1)C(=O)N[C@@H](CO)C(=O)O [AJ003-25, GSCS-(D-Thr)-PPS-(D-Cys)-Aib-LYS (3,9 disulfide bond)] (H-GSCS[dT]PPS[dC][Aib]LYS-OH; disulfide 3-9)
analgesic activity against oxaliplatin-induced chemotherapy pain (mechanical pain threshold compared with the model group) [2]: ineffective | Kd (α7 nAChR): 4670 nM

From patent publication EP4725956A1, “MODIFIED POLYPEPTIDE AND USE THEREOF IN FIELD OF ANALGESIA” (Nanjing Anji Biotechnology Co., Ltd., priority 2023, dated 2024)
